From ChEMBL document CHEMBL6127088, “Novel 2-aminothiazole analogues both as polymyxin E synergist and antimicrobial agent against multidrug-resistant Gram-positive bacteria” (2024)
Converted amounts (≈) assume the structure as drawn. The source made the active and inactive calls. The rule behind the calls is not given here.

What was measured:
Pseudomonas aeruginosa [1] = test: Synergistic antibacterial activity against Pseudomonas aeruginosa PAE 1051 assessed as fold change in polymyxin-E MIC incubated for 18 hrs by broth microdilution method relative to polymyxin-E alone; type: functional
Staphylococcus aureus [2] = test: Antibacterial activity against Staphylococcus aureus S1-1-33 assessed as inhibition of bacterial growth incubated for 18 hrs by broth microdilution method; type: functional
Pseudomonas aeruginosa [3] = test: Synergistic antibacterial activity against Pseudomonas aeruginosa […] assessed as polymyxin-E MIC at 4 microg/ml incubated for 18 hrs by broth microdilution method; type: functional; details: dose 4 µg/ml
Bacillus subtilis [4] = test: Antibacterial activity against Bacillus subtilis ATCC 6633 assessed as inhibition of bacterial growth incubated for 18 hrs by broth microdilution method; type: functional
Klebsiella pneumoniae [5] = test: Synergistic antibacterial activity against Klebsiella pneumoniae KPN 943 assessed as fold change in polymyxin-E MIC incubated for 18 hrs by broth microdilution method relative to polymyxin-E alone; type: functional
Acinetobacter baumannii [6] = test: Synergistic antibacterial activity against Acinetobacter baumannii Ab 1611 assessed as fold change in polymyxin-E MIC incubated for 18 hrs by broth microdilution method relative to polymyxin-E alone; type: functional
[7] = tested on: Mycolicibacterium smegmatis; test: Antibacterial activity against Mycobacterium smegmatis ARC 700044 assessed as inhibition of bacterial growth incubated for 18 hrs by broth microdilution method; type: functional
Pseudomonas aeruginosa [8] = test: Antibacterial activity against Pseudomonas aeruginosa PAE 3887 incubated for 18 hrs by broth microdilution method; type: functional
Staphylococcus aureus [9] = test: Antibacterial activity against methicillin-resistant Staphylococcus aureus ATCC 43300 assessed as inhibition of bacterial growth at 2 microg/ml measured after 24 hrs by time-kill assay; type: functional; set-up: scale not given: the % may be the effect or the level left; details: dose 2 µg/ml
Acinetobacter baumannii [10] = test: Synergistic antibacterial activity against Acinetobacter baumannii Ab 1613 assessed as fold change in polymyxin-E MIC incubated for 18 hrs by broth microdilution method relative to polymyxin-E alone; type: functional
[11] = tested on: Lactiplantibacillus plantarum; test: Antibacterial activity against Lactobacillus plantarum assessed as inhibition of bacterial growth incubated for 18 hrs by broth microdilution method; type: functional
Bacillus subtilis [12] = test: Antibacterial activity against Bacillus subtilis CMCC(B) 63501 assessed as inhibition of bacterial growth incubated for 18 hrs by broth microdilution method; type: functional
Staphylococcus aureus [13] = test: Antibacterial activity against Staphylococcus aureus S1-1-1 assessed as inhibition of bacterial growth incubated for 18 hrs by broth microdilution method; type: functional
Pseudomonas aeruginosa [14] = test: Synergistic antibacterial activity against Pseudomonas aeruginosa PAE 3887 assessed as polymyxin-E MIC at 4 microg/ml incubated for 18 hrs by broth microdilution method; type: functional; details: dose 4 µg/ml
Acinetobacter baumannii [15] = test: Synergistic antimicrobial activity against Acinetobacter baumannii ATCC 19606 assessed as fractional inhibitory concentration index in presence of polymyxin E incubated for 18 to 20 hrs by chequerboard assay; type: functional; details: time 18-20 hrs
Klebsiella pneumoniae [16] = test: Antibacterial activity against Klebsiella pneumoniae KPN 1617 incubated for 18 hrs by broth microdilution method; type: functional
Klebsiella pneumoniae [17] = test: Synergistic antibacterial activity against Klebsiella pneumoniae SIPI-KPN-1712 assessed as fractional inhibitory concentration index at 4 microg/ml incubated for 18 to 20 hrs by chequerboard assay; type: functional; details: dose 4 µg/ml; time 18-20 hrs
Klebsiella pneumoniae [18] = test: Synergistic antibacterial activity against Klebsiella pneumoniae KPN 1617 assessed as polymyxin-E MIC at 4 microg/ml incubated for 18 hrs by broth microdilution method; type: functional; details: dose 4 µg/ml
Acinetobacter baumannii [19] = test: Antimicrobial activity against Acinetobacter baumannii ATCC 19606 incubated for 18 hrs by broth microdilution method; type: functional
Pseudomonas aeruginosa [20] = test: Synergistic antibacterial activity against Pseudomonas aeruginosa PAE 1051 assessed as polymyxin-E MIC at 4 microg/ml incubated for 18 hrs by broth microdilution method; type: functional; details: dose 4 µg/ml
Cell membrane [21] = test: Disruption of cell membrane integrity in Acinetobacter baumannii ATCC 19606 assessed as cytoplasmic content leakage at 4 microg/ml incubated for 1 hrs in presence of polymyxin-E by TEM analysis; type: subcellular; details: dose 4.0 µg/ml
Acinetobacter baumannii [22] = test: Synergistic antibacterial activity against Acinetobacter baumannii Ab 1611 assessed as polymyxin-E MIC at 4 microg/ml incubated for 18 hrs by broth microdilution method; type: functional; details: dose 4 µg/ml
Listeria monocytogenes = test: Antibacterial activity against Listeria monocytogenes assessed as inhibition of bacterial growth incubated for 18 hrs by broth microdilution method; type: functional
Klebsiella pneumoniae [23] = test: Synergistic antibacterial activity against Klebsiella pneumoniae KPN 1617 assessed as fold change in polymyxin-E MIC incubated for 18 hrs by broth microdilution method relative to polymyxin-E alone; type: functional
Acinetobacter baumannii [24] = test: Antibacterial activity against Acinetobacter baumannii ATCC 19606 infected in female Balb/c mouse model assessed as increase in animal survival at 64 mg/kg, iv administered every 12 hrs and measured for 7 days; type: functional, organism-based
Enterococcus faecalis [25] = test: Antibacterial activity against Enterococcus faecalis ATCC 51299 assessed as inhibition of bacterial growth incubated for 18 hrs by broth microdilution method; type: functional
Bacillus subtilis [26] = test: Antibacterial activity against Bacillus subtilis 168 assessed as inhibition of bacterial growth incubated for 18 hrs by broth microdilution method; type: functional
Acinetobacter baumannii [27] = test: Synergistic antibacterial activity against Acinetobacter baumannii Ab 1611 assessed as fractional inhibitory concentration index at 4 microg/ml incubated for 18 to 20 hrs by chequerboard assay; type: functional; details: dose 4 µg/ml; time 18-20 hrs
Cell membrane [28] = test: Disruption of cell membrane integrity in Acinetobacter baumannii ATCC 19606 assessed as cellular damage at 4 microg/ml incubated for 1 hrs by TEM analysis; details: dose 4.0 µg/ml
Enterococcus faecalis [29] = test: Antibacterial activity against Enterococcus faecalis ATCC 29212 assessed as inhibition of bacterial growth incubated for 18 hrs by broth microdilution method; type: functional
Cell membrane [30] = test: Disruption of cell membrane integrity in Acinetobacter baumannii ATCC 19606 assessed as cellular vacuolization at 4 microg/ml incubated for 1 hrs in presence of polymyxin-E by TEM analysis; type: subcellular; details: dose 4.0 µg/ml
Klebsiella pneumoniae [31] = test: Synergistic antibacterial activity against Klebsiella pneumoniae KPN 943 assessed as fractional inhibitory concentration index at 4 microg/ml incubated for 18 to 20 hrs by chequerboard assay; type: functional; details: dose 4 µg/ml; time 18-20 hrs
Cell membrane [32] = test: Induction of outer membrane disruption in Acinetobacter baumannii ATCC 19606 assessed as decrease in fluorescence intensity by NPN dye based fluorescence analysis; type: subcellular
Acinetobacter baumannii [33] = test: Antibacterial activity against Acinetobacter baumannii ATCC 19606 assessed as inhibition of bacterial growth at 16 microg/ml incubated for overnight by time-kill assay; type: functional, organism-based; details: dose 16.0 µg/ml
Acinetobacter baumannii [34] = test: Synergistic antibacterial activity against Acinetobacter baumannii Ab 1613 assessed as polymyxin-E MIC at 4 microg/ml incubated for 18 hrs by broth microdilution method; type: functional; details: dose 4 µg/ml
Pseudomonas aeruginosa [35] = test: Synergistic antibacterial activity against Pseudomonas aeruginosa […] assessed as fractional inhibitory concentration index at 4 microg/ml incubated for 18 to 20 hrs by chequerboard assay; type: functional; details: dose 4 µg/ml; time 18-20 hrs
Pseudomonas aeruginosa [36] = test: Synergistic antibacterial activity against Pseudomonas aeruginosa PAE 3887 assessed as fractional inhibitory concentration index at 4 microg/ml incubated for 18 to 20 hrs by chequerboard assay; type: functional; details: dose 4 µg/ml; time 18-20 hrs

Q: What does the source list for `C/C(=N\Nc1ccccn1)c1csc(Nc2cc(F)cc(C(F)(F)F)c2)n1`?
A: fold change (FC) (Pseudomonas aeruginosa [1]): 4; MIC (Staphylococcus aureus [2]): 2 µg/mL (≈ 5.06 µM); MIC (Pseudomonas aeruginosa [3]): 1 µg/mL; MIC (Bacillus subtilis [4]): 2 µg/mL (≈ 5.06 µM); fold change (FC) (Klebsiella pneumoniae [5]): 32; fold change (FC) (Acinetobacter baumannii [6]): 16; MIC [7]: 2 µg/mL (≈ 5.06 µM); MIC (Pseudomonas aeruginosa [8]): > 128 µg/mL; Activity (Staphylococcus aureus [9]): 100%; fold change (FC) (Acinetobacter baumannii [10]): 4; MIC [11]: 1 µg/mL (≈ 2.53 µM); MIC (Bacillus subtilis [12]): 0.5 µg/mL (≈ 1.26 µM); MIC (Staphylococcus aureus [13]): 1 µg/mL (≈ 2.53 µM); MIC (Pseudomonas aeruginosa [14]): 0.125 µg/mL; fractional inhibitory concentration index (FICI) (Acinetobacter baumannii [15]): 0.066; MIC (Klebsiella pneumoniae [16]): > 128 µg/mL; fractional inhibitory concentration index (FICI) (Klebsiella pneumoniae [17]): 0.094; MIC (Klebsiella pneumoniae [18]): 0.5 µg/mL; MIC (Acinetobacter baumannii [19]): 128 µg/mL (≈ 324 µM); MIC (Pseudomonas aeruginosa [20]): 0.25 µg/mL; Activity (Cell membrane [21]): Active; MIC (Acinetobacter baumannii [22]): 0.063 µg/mL; MIC (Listeria monocytogenes): 4 µg/mL (≈ 10.1 µM); fold change (FC) (Klebsiella pneumoniae [23]): 16; Activity (Acinetobacter baumannii [24]): inactive; MIC (Enterococcus faecalis [25]): 2 µg/mL (≈ 5.06 µM); MIC (Bacillus subtilis [26]): 1 µg/mL (≈ 2.53 µM); fractional inhibitory concentration index (FICI) (Acinetobacter baumannii [27]): 0.094; Activity (Cell membrane [28]): Active; MIC (Enterococcus faecalis [29]): 2 µg/mL (≈ 5.06 µM); Activity (Cell membrane [30]): Active; fractional inhibitory concentration index (FICI) (Klebsiella pneumoniae [31]): 0.062; Activity (Cell membrane [32]): Active; Activity (Acinetobacter baumannii [33]): inactive; MIC (Acinetobacter baumannii [34]): 0.125 µg/mL; fractional inhibitory concentration index (FICI) (Pseudomonas aeruginosa [35]): 0.531; fractional inhibitory concentration index (FICI) (Pseudomonas aeruginosa [36]): 0.094
